Measured values as given in patent US7354925B2, “Alpha aryl or heteroaryl methyl beta piperidino propanamide compounds as ORL1-receptor antagonists” (Pfizer Inc., priority 2004, dated 2008).
Structures can show the parent of a compound that is named as a salt.

Key:
human ORL1 receptor = biological target: T1, human ORL1 receptor (Homo sapiens, UniProt P41146); experiment: ORL1-receptor binding assay; details: [3H]nociceptin, human ORL1 receptor transfected HEK-293 cell membranes; read-out: Ki value with regard to binding affinity for the ORL1 receptor
T1 construct: purchased PerkinElmer; host or cells: HEK-293 (transfected), membranes
Protocol: The human ORL1 receptor transfected HEK-293 cell membranes (PerkinElmer) were incubated for 45 min at room temperature with 0.4 nM [^3H]nociceptin, 1.0 mg of wheat germ agglutinin (WGA)-coated SPA beads and various concentrations of test compounds in a final volume of 200 μL of 50 mM HEPES buffer pH 7.4 containing 10 mM MgCl2 and 1 mM EDTA. Non-specific binding (NSB) was determined by the addition of 1 μM unlabeled nociceptin. After the reaction, the assay plate was centrifuged at 1,000 rpm for 1 min and then the radioactivity was measured by WALLAC 1450 MicroBeta Trilux.

[1] = biological target: T2, HERG type potassium channel (Homo sapiens, UniProt Q12809); format: binding
T2 construct: expressed in transfected cells; host or cells: HEK-293 cells expressing HERG; membrane homogenate
Protocol: Cell paste of HEK-293 cells expressing the HERG product can be suspended in 10-fold volume of 50 mM Tris buffer adjusted at pH 7.5 at 25° C. with 2 M HCl containing 1 mM MgCl2, 10 mM KCl. The cells were homogenized using a Polytron homogenizer (at the maximum power for 20 seconds) and centrifuged at 48,000 g for 20 min at 4° C. The pellet was resuspended, homogenized and centrifuged once more in the same manner. The resultant supernatant was discarded and the final pellet was resuspended (10-fold volume of 50 mM Tris buffer) and homogenized at the maximum power for 20 sec. The membrane homogenate was aliquoted and stored at −80° C. until use. Analiquot was used for protein concentration determination using a Protein Assay Rapid Kit and ARVO SX plate reader (Wallac). […] Saturation was determined by incubating 20 μL of [^3H]-dofetilide and 160 μl of membrane homogenates (20-30 μg protein per well) for 60 min at room temperature in the absence or presence of 10 μM dofetilide at final concentrations (20 μL) for total or nonspecific binding, respectively. […] Receptor-bound radioactivity was quantified by liquid scintillation counting using Packard LS counter.
For the competition assay, compounds were diluted in 96 well polypropylene plates as 4-point dilutions in semi-log format. […] Receptor-bound radio activity was quantified by counting Wallac MicroBeta plate counter.

T1 sequence (P41146 whole entry): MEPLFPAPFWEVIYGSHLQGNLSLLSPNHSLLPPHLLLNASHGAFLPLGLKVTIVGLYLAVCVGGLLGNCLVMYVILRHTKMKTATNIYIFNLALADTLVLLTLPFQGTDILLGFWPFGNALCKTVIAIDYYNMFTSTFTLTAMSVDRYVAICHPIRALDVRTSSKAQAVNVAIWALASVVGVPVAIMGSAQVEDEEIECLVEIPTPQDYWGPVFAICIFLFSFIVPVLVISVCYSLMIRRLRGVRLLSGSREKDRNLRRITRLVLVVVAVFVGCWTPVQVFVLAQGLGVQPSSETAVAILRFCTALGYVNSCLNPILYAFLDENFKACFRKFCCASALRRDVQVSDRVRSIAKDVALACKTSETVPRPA
T2 sequence (Q12809 whole entry): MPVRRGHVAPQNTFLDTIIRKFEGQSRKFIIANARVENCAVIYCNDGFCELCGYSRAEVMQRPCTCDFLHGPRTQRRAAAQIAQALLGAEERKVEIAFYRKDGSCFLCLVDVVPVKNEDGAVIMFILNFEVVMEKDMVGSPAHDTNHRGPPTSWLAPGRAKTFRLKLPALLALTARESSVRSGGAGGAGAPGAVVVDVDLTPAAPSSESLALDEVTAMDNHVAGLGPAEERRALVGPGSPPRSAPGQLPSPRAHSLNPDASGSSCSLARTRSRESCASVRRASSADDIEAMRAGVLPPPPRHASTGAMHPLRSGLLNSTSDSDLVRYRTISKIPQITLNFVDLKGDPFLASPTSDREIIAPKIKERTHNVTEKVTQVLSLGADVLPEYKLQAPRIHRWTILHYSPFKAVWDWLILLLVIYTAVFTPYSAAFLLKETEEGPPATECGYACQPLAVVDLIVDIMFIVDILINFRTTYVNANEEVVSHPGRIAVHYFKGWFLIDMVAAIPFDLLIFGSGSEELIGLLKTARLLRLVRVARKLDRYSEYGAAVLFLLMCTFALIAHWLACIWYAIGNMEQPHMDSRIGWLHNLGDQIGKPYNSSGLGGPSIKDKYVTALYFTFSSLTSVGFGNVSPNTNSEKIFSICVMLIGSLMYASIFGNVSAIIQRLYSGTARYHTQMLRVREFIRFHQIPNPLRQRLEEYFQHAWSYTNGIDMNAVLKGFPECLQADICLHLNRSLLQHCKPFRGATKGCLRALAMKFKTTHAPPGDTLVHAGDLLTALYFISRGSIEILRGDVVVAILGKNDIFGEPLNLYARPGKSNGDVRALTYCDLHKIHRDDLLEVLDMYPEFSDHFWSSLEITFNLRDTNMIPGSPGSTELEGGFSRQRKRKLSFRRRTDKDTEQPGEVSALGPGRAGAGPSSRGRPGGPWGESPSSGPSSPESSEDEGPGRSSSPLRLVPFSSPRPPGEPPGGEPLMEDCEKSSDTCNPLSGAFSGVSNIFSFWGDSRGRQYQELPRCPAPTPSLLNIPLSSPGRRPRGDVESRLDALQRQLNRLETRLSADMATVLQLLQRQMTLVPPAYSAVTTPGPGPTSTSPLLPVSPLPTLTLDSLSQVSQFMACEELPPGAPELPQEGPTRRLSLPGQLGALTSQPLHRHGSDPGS

## CN(C)C(=O)C(Cc1cscn1)CN1CCC2(CC1)OCc1ccc(F)cc12 (single isomer, unassigned; (-)) [Example 92, (−)-3-(6-FLUORO-1′H,3H-SPIRO[2-BENZOFURAN-1,4′-PIPERIDIN]-1′-YL)-N,N-DIMETHYL-2-(1,3-THIAZOL-4-YLMETHYL)P[…], CITRATE]
Human ORL1 receptor
  Ki: 5 nM

## CN(C)C(=O)C(CN1CCC2(CC1)OCc1ccc(F)cc12)Cn1cccn1 (single isomer, unassigned; (-)) [Example 102, (−)-3-(6-FLUORO-1′H,3H-SPIRO[2-BENZOFURAN-1,4′-PIPERIDIN]-1′-YL)-N,N-DIMETHYL-2-(1H-PYRAZOL-1-YLMETHYL)P[…], CITRATE]
Human ORL1 receptor
  Ki: 12 nM

## CN1C(=O)C(CN2CCC3(CCc4ccccc43)CC2)Cc2ccccc21 (stereo not drawn) [Compound (i)]
[1]
  activity in the dofetilide binding assay: potent activity
